From patent US20120058150A1, “Methods for Delivering Compositions by Electrospraying a Medical Device” (COLORADO STATE UNIVERSITY RESEARCH FOUNDATION, priority 2010, published 2012)

Assay: gentamicin sulfate loading efficiency of E-sprayed DOPS coatings
Assay type: physicochemical
Conditions: 14 kV E-spray voltage compared with the other voltages (FIG. 4)

## gentamicin sulfate
  gentamicin sulfate loading efficiencies: significantly greater
